ChEMBL document CHEMBL1201862, “PubChem BioAssay data set” (2004)
The source made the active and inactive calls.

Key:
[1] = HepG2 cell cytotoxicity, dose response, cytotoxicity control, cherry-picked samples (AID 1159577); type: functional, cell-based
[2] = P. falciparum 3D7-ScDHODH growth inhibitors, dose response, SYBR Green, dry powder samples (AID 1159570); type: functional, cell-based;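 further: parasite growth measured after 72 hours of compound exposure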
[3] = P. falciparum Dd2 growth inhibitors, dose response, SYBR Green, dry powder samples (AID 1159566); type: functional, cell-based;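 further: potency for growth inhibition with lower SYBR green DNA signal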
[4] = P. falciparum Dd2 growth inhibitors, dose response, SYBR Green, cherry-picked samples (AID 1159567); type: functional, cell-based
[5] = P. falciparum ATP4 D1247Y mutant growth inhibitors, dose response, NITD609-resistant line, SYBR Green, dry powder (AID 1159571); type: functional, cell-based;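 further: parasites synchronized at ring stage by sorbitol before testing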
[6] = biological target: T1, Trace amine-associated receptor 1 (Homo sapiens, UniProt Q96RJ0); assay: Fluorescence-based cell-based high throughput dose response assay to identify agonists of the human trace amine associated receptor 1 (TAAR1).; type: functional
T1 sequence (Q96RJ0 whole entry): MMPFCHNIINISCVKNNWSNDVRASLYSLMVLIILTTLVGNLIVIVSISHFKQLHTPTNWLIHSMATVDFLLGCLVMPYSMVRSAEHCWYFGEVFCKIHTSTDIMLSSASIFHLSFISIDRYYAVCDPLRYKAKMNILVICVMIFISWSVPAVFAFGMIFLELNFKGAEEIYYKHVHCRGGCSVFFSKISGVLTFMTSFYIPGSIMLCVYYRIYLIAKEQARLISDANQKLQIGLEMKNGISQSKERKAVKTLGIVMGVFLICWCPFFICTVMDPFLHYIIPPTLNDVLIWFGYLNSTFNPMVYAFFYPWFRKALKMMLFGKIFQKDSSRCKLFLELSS

[7] = biological target: T1, Trace amine-associated receptor 1; assay: Counterscreen for agonists of the human trace amine associated receptor 1 (hTAAR1): Fluorescence-based cell-based high throughput dose response assay to identify hTAAR1 agonist that also desensitize TAAR1 receptor response.; type: functional
[8] = A549 cell cytotoxicity, dose response, cytotoxicity control, plate reader, cherry-pick, antagonist series (AID 743412); type: functional, cell-based
cells [9] = type: functional, cell-based
[10] = HepG2 cell cytotoxicity, dose response, cytotoxicity control, plate reader, cherry-pick, antagonist series (AID 743416); type: functional, cell-based
cells [11] = type: functional, cell-based; remark: listed apart in the source
[12] = MC4R antagonists, dose response, counter-screen for LGR2 antagonist project, cell-based, plate reader, cherry pick (AID 743444); type: functional;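 further: transfected HEK 293 cells stimulated with alpha-MSH peptide; potency of inhibitors of the alpha-MSH evoked signal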
[13] = Luminescence Cell-Based Dose Response HTS to Identify Inhibitors of 5'UTR Stem-Loop Driven Prion Protein mRNA Translation in H4 Neuroglioblastoma Cells. [Related pubchem assays: 1827 (Project Summary), 1813 (Primary HTS)]; type: functional
[14] = LGR2 antagonists, dose response, cell-based, HEK293, CRE-luciferase reporter, cherry pick, set 2 (AID 743343); type: functional;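 further: transfected cells were stimulated with diluted bursicon conditioned medium after compound addition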
Ephrin type-A receptor 4 = Ephrin type-A receptor 4 (Mus musculus, UniProt Q03137); assay: inhibitors of EphA4 binding to KYL peptide, primary screen, biochemical, colorimetric, mouse EphA4 (AID 689); type: functional
Sequence of Ephrin type-A receptor 4 (Q03137 whole entry): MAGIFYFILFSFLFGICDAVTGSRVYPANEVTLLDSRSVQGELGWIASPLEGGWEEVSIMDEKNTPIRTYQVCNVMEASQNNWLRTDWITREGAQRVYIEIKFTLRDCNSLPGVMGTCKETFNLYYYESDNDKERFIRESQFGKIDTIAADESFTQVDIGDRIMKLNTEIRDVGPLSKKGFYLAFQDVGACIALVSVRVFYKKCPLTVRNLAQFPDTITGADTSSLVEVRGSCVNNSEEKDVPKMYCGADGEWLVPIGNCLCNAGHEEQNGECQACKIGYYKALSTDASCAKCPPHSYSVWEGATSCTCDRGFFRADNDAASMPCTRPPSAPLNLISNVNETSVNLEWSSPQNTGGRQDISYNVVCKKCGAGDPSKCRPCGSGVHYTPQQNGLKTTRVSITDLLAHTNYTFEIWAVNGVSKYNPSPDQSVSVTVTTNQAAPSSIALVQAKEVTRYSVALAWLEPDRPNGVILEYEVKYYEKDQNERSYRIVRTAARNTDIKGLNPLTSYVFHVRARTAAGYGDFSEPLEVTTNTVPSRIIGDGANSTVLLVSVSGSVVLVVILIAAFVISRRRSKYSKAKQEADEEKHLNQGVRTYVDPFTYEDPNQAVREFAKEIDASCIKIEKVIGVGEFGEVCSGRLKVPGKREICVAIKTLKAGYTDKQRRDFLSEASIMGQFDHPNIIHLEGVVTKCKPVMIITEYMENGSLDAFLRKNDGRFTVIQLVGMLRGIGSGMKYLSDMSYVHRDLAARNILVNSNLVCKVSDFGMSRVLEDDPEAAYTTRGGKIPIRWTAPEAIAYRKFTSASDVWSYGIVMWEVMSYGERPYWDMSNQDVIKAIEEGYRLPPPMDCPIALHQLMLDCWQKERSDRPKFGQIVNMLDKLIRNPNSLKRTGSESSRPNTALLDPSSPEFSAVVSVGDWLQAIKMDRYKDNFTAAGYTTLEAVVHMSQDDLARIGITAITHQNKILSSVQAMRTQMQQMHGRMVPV

[15] = cytotoxicity toward NIH3T3 fibroblasts, dose response, counter-screen, cell-based, ATP luminescence, mouse fibroblasts (AID 2010); type: functional;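 further: cells exposed to compound for about 90 hours before reading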
[16] = biological target: Induced myeloid leukemia cell differentiation protein Mcl-1 (Homo sapiens, UniProt Q07820); type: functional
Sequence of Induced myeloid leukemia cell differentiation protein Mcl-1 (Q07820 whole entry): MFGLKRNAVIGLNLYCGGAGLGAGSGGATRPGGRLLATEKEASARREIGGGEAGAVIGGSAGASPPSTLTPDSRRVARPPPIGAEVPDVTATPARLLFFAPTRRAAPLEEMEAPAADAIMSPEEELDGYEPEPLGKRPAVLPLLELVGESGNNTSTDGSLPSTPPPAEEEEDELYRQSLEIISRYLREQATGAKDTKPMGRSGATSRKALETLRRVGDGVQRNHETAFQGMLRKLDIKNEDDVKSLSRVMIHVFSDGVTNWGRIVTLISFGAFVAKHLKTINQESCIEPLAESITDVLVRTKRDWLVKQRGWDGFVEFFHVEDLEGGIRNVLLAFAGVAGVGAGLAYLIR

[17] = biological target: Eukaryotic translation initiation factor 4E (Mus musculus, UniProt P63073); assay: eIF4E–eIF4G protein interaction inhibitors, dose response, biochemical, TR-FRET (AID 855); type: functional;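 further: potency for disrupting eIF4E binding to eIF4GI seen as loss of FRET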
Sequence of Eukaryotic translation initiation factor 4E (P63073 whole entry): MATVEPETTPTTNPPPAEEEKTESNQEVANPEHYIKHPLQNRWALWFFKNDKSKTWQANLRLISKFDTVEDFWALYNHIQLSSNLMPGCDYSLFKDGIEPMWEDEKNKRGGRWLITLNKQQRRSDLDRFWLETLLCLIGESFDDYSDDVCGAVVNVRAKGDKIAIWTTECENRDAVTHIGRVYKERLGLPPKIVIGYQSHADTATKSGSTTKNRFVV

Genome polyprotein = Genome polyprotein (dengue virus type 2, UniProt P29990); assay: Dengue-2 NS5 methyltransferase inhibitors, primary screen, biochemical, confirmation dose response (AID 588689); type: functional
Sequence of Genome polyprotein (P29990 2492-3391 limits assumed): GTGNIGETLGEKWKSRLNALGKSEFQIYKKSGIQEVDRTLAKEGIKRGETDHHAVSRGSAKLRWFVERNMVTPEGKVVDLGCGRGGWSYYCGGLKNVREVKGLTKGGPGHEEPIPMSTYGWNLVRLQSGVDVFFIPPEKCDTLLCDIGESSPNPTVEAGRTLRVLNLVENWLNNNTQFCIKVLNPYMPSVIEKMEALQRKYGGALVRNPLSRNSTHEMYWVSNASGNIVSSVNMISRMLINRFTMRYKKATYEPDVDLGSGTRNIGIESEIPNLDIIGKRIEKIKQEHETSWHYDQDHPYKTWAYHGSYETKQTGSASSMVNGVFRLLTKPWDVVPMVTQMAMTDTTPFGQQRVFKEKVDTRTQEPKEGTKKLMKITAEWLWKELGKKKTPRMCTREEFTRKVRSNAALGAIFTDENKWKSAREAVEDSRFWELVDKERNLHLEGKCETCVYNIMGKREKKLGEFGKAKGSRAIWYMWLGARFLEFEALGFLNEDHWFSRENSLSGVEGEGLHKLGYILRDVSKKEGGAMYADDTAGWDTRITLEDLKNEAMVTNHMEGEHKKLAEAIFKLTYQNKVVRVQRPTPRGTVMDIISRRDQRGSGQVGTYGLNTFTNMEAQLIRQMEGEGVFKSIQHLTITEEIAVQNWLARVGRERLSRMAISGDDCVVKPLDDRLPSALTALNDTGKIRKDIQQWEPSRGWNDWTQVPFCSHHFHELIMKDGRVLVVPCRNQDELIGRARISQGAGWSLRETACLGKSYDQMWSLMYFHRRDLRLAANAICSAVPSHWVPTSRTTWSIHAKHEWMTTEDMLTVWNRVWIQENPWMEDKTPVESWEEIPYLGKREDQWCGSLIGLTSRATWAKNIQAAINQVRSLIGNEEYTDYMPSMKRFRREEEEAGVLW

[18] = inhibitors of intracellular T. cruzi replication, confirmation, NIH3T3 host cells, beta-gal luminescence (AID 2044); type: functional, cell-based;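 further: intracellular parasites grown in NIH/3T3 mouse fibroblasts as host cells; luminescent beta-galactosidase reporter signal from transgenic T. cruzi replicating inside host cells; inhibitors lower the luminescence signal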
Prothrombin = Prothrombin (Homo sapiens, UniProt P00734); assay: Thrombin 1536 HTS Dose Response Confirmation. [Related pubchem assays: 1046 (Thrombin 1536 HTS; hits were confirmed in this assay)]; type: functional
[19] = biological target: T2, Corticotropin-releasing factor receptor 2/Corticotropin-releasing factor-binding protein (Homo sapiens, UniProt P24387+Q13324); assay: activators of CRF receptor 2 with binding protein – uHTS hits, confirmation (AID 602473); type: functional; details: read-out: EC50_Mean
T2 sequence (Q13324 whole entry): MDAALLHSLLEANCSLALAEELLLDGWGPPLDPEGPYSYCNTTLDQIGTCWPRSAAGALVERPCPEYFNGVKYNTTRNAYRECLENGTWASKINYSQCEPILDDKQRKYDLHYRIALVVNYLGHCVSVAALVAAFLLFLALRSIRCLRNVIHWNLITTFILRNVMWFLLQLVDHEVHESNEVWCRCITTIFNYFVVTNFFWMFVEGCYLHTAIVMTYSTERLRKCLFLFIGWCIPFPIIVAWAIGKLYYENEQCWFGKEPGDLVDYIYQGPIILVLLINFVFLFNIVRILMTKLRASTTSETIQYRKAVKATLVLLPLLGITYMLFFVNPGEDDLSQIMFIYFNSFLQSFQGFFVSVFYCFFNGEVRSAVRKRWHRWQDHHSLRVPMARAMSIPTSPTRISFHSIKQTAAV
T2 sequence (P24387 whole entry): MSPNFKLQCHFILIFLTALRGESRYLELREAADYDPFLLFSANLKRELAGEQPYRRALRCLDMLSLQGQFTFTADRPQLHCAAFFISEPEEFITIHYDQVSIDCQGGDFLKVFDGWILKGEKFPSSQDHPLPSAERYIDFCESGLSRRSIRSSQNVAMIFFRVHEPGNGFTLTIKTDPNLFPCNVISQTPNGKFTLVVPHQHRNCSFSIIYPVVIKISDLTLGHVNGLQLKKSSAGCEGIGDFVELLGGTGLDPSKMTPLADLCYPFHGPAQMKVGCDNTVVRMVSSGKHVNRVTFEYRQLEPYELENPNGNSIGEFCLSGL

[20] = THP-1 cell cytotoxicity, dose response, cytotoxicity control for non-replicating M. tuberculosis project (AID 489025); type: functional
cells [21] = type: functional
INS1 = assay: beta cell apoptosis inhibitors, cytokine rescue, dose response, luminescence, retest (AID 449756); type: functional, cell-based; details: Rattus norvegicus;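 further: cell death triggered by IL-1 beta plus TNF-alpha plus IFN-gamma mixture; protective hits raise ATP signal compared with cytokine alone wells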
[22] = cytotoxicity in HEK-293T cells, dose response, cytotoxicity control for TCR NF-kB inhibitor project, luminescence, T-cell screen hits (AID 489026); type: functional, cell-based;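 further: cells exposed to compound about 14 hours before the viability readout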
H4 = assay: Luminescence Cell-Based Dose Response HTS to Identify Activators of 5'UTR Stem-Loop Driven Prion Protein mRNA Translation in H4 Neuroglioblastoma Cells. [Related pubchem assays: 1829 (Project Summary), 1814 (Primary HTS)]; type: functional; details: Homo sapiens
[23] = Luminescence Cell-Based Dose Response HTS to Identify Activators of Luciferase Translation or Activity in H4 […] Cells. [Related pubchem assays: 1829 (Project Summary), 1814 (Primary HTS)]; type: functional
[24] = Luminescence Cell-Based Dose Confirmation HTS to Identify Activators of 5'UTR Stem-Loop Driven Alpha-Synuclein mRNA Translation in H4 Neuroglioblastoma Cells. [Related pubchem assays: 1829 (Project Summary), 1814 (Primary HTS)]; type: functional
[25] = Late stage assay provider results from the probe development effort to identify selective inhibitors of heat shock protein 90 (HSP90): Absorbance-based cell proliferation assay in SKBR3 cells.; type: functional; details: SK-BR-3
[26] = Late stage assay provider results from the probe development effort to identify selective inhibitors of heat shock protein 90 (HSP90): Absorbance-based cell proliferation assay in MCF7 cells.; type: functional

## COc1ccc2c3c([nH]c2c1)[C@H](CO)N(S(=O)(=O)c1ccc(C)cc1)CC31CCN(C(=O)Cc2cccnc2)CC1
[1]
  AC50: > 39 µM (inactive)
[2]
  AC50: 0.54 µM (active)
[3]
  AC50: 0.332 µM (active)
[4]
  AC50: 1.19 µM (active)
[5]
  AC50: 0.265 µM (active)

## Cc1ccc(Nc2nc(N)c3ccccc3n2)cc1C
[6]
  EC50: 4.53 µM (active)
[7]
  IC50: 8.34 µM (active)
[8]
  AC50: 34 µM (active)
Cells [9]
  IC50: > 29.9 µM (inactive)
[10]
  AC50: 2.36 µM (active)
Cells [11]
  EC50: > 29.9 µM (inactive)
[12]
  AC50: 5 µM (active)
[13]
  EC50: 7.32 µM (active)
[14]
  AC50: 2.9 µM (active)

## Fc1ccc(-c2cc3nc4c(c(N5CCOCC5)n3n2)CCCC4)cc1
Ephrin type-A receptor 4
  IC50: > 100 µM (not active)

## COc1ccccc1-c1ccc2c(c1)[C@H]1[C@H](CCN1C(=O)C1CCC1)[C@H](CO)N2
[1]
  AC50: 30.5 µM (active)
[4]
  AC50: 5.25 µM (active)

## Cc1ccc(O)c(NC2=C(Cl)C(=O)N(Cc3ccccc3)C2=O)c1
[15]
  EC50: > 60 µM (inconclusive)
[16]
  IC50: 3.01 µM (not active)
[17]
  IC50: 50 µM (inactive)
Genome polyprotein
  IC50: > 100 µM (active)
[18]
  EC50: 4.37 µM (active)

## Cc1ccc(-c2noc(CN3CCC(C(N)=O)CC3)n2)cc1
Prothrombin
  IC50: > 50 µM (not active)
[19]
  EC50: > 53 µM (inactive)

## CC(C)(C)c1ccccc1OCCOCCN1CCCCCC1
[15]
  EC50: > 60 µM (inconclusive)
[20]
  CC50: 27.6 µM (active)
Cells [21]
  IC50: > 50 µM (active)
[18]
  EC50: 0.651 µM (active)

## COc1ccc2c3c(n(C)c2c1)[C@@H](CO)N(C(=O)C1CC1)CC31CN(C(=O)Nc2cccc(F)c2)C1
[2]
  AC50: 0.209 µM (active)
[3]
  AC50: 0.196 µM (active)
[4]
  AC50: 0.692 µM (active)
[5]
  AC50: 0.164 µM (active)

## CCOc1ccccc1NC(=O)C1CCN(S(=O)(=O)c2cccc3cccnc23)CC1
[17]
  IC50: > 64 µM (inactive)

## O=C1/C(=C/c2ccc(N3CCOCC3)o2)S/C(=N\c2ccccc2)N1CCc1c[nH]c2ccccc12
INS1
  AC50: 17.2 µM (active)
[22]
  IC50: > 80 µM (inactive)
H4
  EC50: > 120 µM (not active)
[23]
  EC50: > 120 µM (not active)
[24]
  EC50: 13 µM (active)

## Cc1nnc(=O)[nH]c1NCc1ccco1
[17]
  IC50: > 64 µM (inactive)

## COc1ccc2oc(=O)c(Br)cc2c1
[25]
  IC50: 80.2 µM (inactive)
[26]
  IC50: > 100 µM (inactive)
